Measured values from patent US10954260B2, “Cymanquine compounds and derivatives thereof and uses thereof” (UNIVERSITY OF VERMONT AND STATE AGRICULTURAL COLLEGE, priority 2015, dated 2021).
“Also recorded” adds a separate entry of the source.

Key:
[1] = tested on: autophagy; conditions: low pH media, and bulky tumors in vivo; Pellegrini et al.; cited from earlier work
[2] = tested on: panel of human cancer cell lines; experiment: Cytotoxicity assay (MTS cell viability, 72 h); type: cell-based
Protocol: (§1) Materials and Methods. Cell lines and reagents. Human cancer cell lines ACHN (kidney adenocarcinoma), BxPC3 (pancreatic adenocarcinoma), DU145 (prostate carcinoma), HT29 (colorectal adenocarcinoma), Jurkat (T-cell lymphoma), LNCaP (androgen sensitive prostate adenocarcinoma), PC3 (androgen insensitive prostate adenocarcinoma), SB1A (melanoma), and T47D (breast infiltrating ductal carcinoma) were cultured RPMI 1640 (Mediatech, Inc., Manassas, Va.) supplemented with 10% fetal bovine serum, 1% penicillin/streptomycin/amphotericin B solution, 1 mM sodium pyruvate, 1% MEM non-essential amino acid solution, and 2 mM L-glutamine at 37° C. in a 5% CO2, humidified incubator. All supplements were purchased from HyClone™ (Logan, Utah). […] The resulting pH was measured to be 6.72±0.06 in the absence of cells. […]
(§2) Cytotoxicity assay. […] Viability was measured by the CellTiter 96 AQueous Non-Radioactive Cell Proliferation Assay (Promega, Madison, Wis.) according to manufacturer's instruction. Briefly, 20 μL of MTS/PMS reagent was added to each tissue culture well, and incubated at 37° C. for a minimum of 2 hours, or until the maximum absorbance at 490 nm on the plate (wells with highest cell numbers) reached a value greater than 0.6. Absorbance was measured on a Perkin-Elmer Victor X4 multi-label plate reader. […]

[3] = Cyclic voltammetry, anodic oxidation potentials; type: physicochemical; conditions: dichloromethane/0.05 M [NBu4][B(C6F5)4]
Protocol: Electrochemical studies were carried out. The electrolyte solution used for these studies, namely dichloromethane with 0.05 M [NBu4][B(C6F5)4] as the supporting electrolyte, is known to provide an optimum medium for the electrochemical oxidation of compounds containing the MnCp(CO)3 (Cp=η^5-C5H5) backbone (Laws et al., J. Am. Chem. Soc. 2008, 130, 9859). The potentials given here are referred to the ferrocene/ferrocenium reference couple. The experiments were carried out in a controlled atmosphere which minimizes exposure to oxygen and water. We refer to two types of standard electrochemical techniques that are commonly described in books on electrochemistry: cyclic voltammetry and bulk electrolysis (Bard, A. J.; Faulkner, L. R. Electrochemical Methods, John Wiley & Sons, New York, 2001, second edition) The former is useful for the analytical and gross mechanistic aspects of the electron-transfer properties of a compound, whereas the latter is most often employed for the electro-synthetic function of making isolable quantities of electrochemical oxidation or reduction products.
Anodic oxidation of the three compounds was investigated. […]
Table of potentials (vs ferrocene/ferrocenium (FcH)) measured by cyclic voltammetry for oxidation of compounds 3, 4, and 5 in dichloromethane/0.05 M [NBu4][B(C6F5)4]. […]

[4] = tested on: EGFP-LC3 fusion protein in SB1A cells; experiment: Fluorescence microscopy of EGFP-LC3 sub-cellular distribution; type: cell-based, human; conditions: SB1A stably expressing EGFP-LC3, 4 h
Protocol: (§3) FIG. 10. Evidence of lysosomal accumulation and cytotoxicity obtained through autophagy blockade by Cymanquine. A, SB1A cells were treated with various concentrations of Cymanquine or CQ for 24 h prior to western blotting for LC3 isoforms 1 and 2 (LC3-I and II—see text), respectively. […] B, SB1A cells stably expressing EGFP-LC3 were treated with indicated concentrations of CQ and Cymanquine for 4 h prior to fluorescence microscopy evaluation of EGFP-LC3 sub-cellular deposition. C-E, SB1A were treated with various concentrations of Cymanquine or CQ for 24 h prior to simultaneous staining with NBD-PZ and propidium iodide and analysis by flow cytometry. C, Live cells, sorted based on absence of propidium iodide staining (left panel, pentagonal gate) were analyzed for NBD-PZ staining, indicative of lysosomal content. B,C, The dose-response of Cymanquine and CQ on B, percentage of live cells (negative for propidium iodide staining), and C, NBD-PZ median fluorescence intensity of live cells. […]
(§4) Experiments aimed at elucidating the mechanism of action of Cymanquine were conducted. […] Preliminary quantitation of Cymanquine and CQ from isolated lysosomes of cells treated with equimolar quantities of either drug have been encouraging, showing a 60-fold higher accumulation of Cymanquine compared to CQ, as measured by HPLC-MS/MS.

[5] = tested on: isolated lysosomes of cells; experiment: Quantitation of drug from isolated lysosomes by HPLC-MS/MS; type: cell-based; conditions: preliminary, cells treated with equimolar quantities of either drug
Protocol: Experiments aimed at elucidating the mechanism of action of Cymanquine were conducted. […] It is known that the blockade of autophagy results in the accumulation of neutralized lysosomes and of proteins normally cleared by autophagic flux. FIG. 10 presents data that support a mechanism of action for Cymanquine as a weak base lysosomotropic autophagy inhibitor. […] The lysosomotropic fluorophore, NBD-PZ, was employed in conjunction with propidium iodide (PI) to simultaneously measure lysosomal accumulation, neutralization, and cell viability by flow cytometry on CQ and Cym treated SB1A cells (FIG. 10C-E). […] Furthermore, at the highest concentration of Cymanquine tested, NBD-PZ staining is reduced, due to either lysosome loss, or neutralization, as emission of this fluorophore is highly dependent upon pH. Preliminary quantitation of Cymanquine and CQ from isolated lysosomes of cells treated with equimolar quantities of either drug have been encouraging, showing a 60-fold higher accumulation of Cymanquine compared to CQ, as measured by HPLC-MS/MS.

[6] = tested on: LC3-II; experiment: Western blotting for LC3 isoforms in SB1A cells; type: cell-based, human; conditions: 24 h
Protocol: as §3, §4

[7] = tested on: SB1A cells; experiment: Flow cytometry with NBD-PZ and propidium iodide staining; type: cell-based, human; conditions: 24 h
Protocol: FIG. 10. […] C, Live cells, sorted based on absence of propidium iodide staining (left panel, pentagonal gate) were analyzed for NBD-PZ staining, indicative of lysosomal content. […] Data in B,C presented as mean+/−SEM (n=3). *P<0.05, **P<0.001 by student's t-test.
Experiments aimed at elucidating the mechanism of action of Cymanquine were conducted. […] It is known that the blockade of autophagy results in the accumulation of neutralized lysosomes and of proteins normally cleared by autophagic flux.

[8] = tested on: RWPE-1; experiment: Cytotoxicity assay (MTS cell viability, 72 h) in normal prostate epithelial cells; type: cell-based, human; conditions: normal pH
Protocol: as §1, §2

| Compound | anti-autophagic efficacy [1] | cytotoxicity compared to CQ ([2]; low-pH (PIPES-supplemented) media) | cytotoxicity compared to CQ ([2]; normal pH growth conditions, listed as CMQ) | Ep(1) ([3]; first oxidation, anodic peak potential, irreversible) [V vs FcH] | E1/2(2) or Ep(2) ([3]; second oxidation, given as Ep (irreversible)) [V vs FcH] | subcellular distribution of EGFP-LC3 [4] | accumulation in lysosomes compared to CQ [5] [fold] | cell death at the highest concentrations tested [6] | accumulation of autophagy marker LC3-II ([6]; western blot) | NBD-PZ staining ([7]; highest concentration tested) | cytotoxicity (percentage of live cells, propidium iodide) ([7]; low micromolar exposures) | lysosome content (NBD-PZ staining of live cells) ([7]; low micromolar exposures) | relative sensitivity of RWPE-1 compared to transformed cell lines [8] |
| --- | --- | --- | --- | --- | --- | --- | --- | --- | --- | --- | --- | --- | --- |
| CCN(CC)CCCC(C)Nc1ccnc2cc(Cl)ccc12 (stereo not shown) [CQ, Chloroquine] | poor anti-autophagic efficacy |  |  |  |  |  |  |  |  |  |  |  |  |
| cymanquine [Compound 3] |  | more potent cytotoxicity than CQ | more potent cytotoxicity than CQ; also recorded: more potent single-agent cytotoxic properties than CQ | 0.82 | 1.25 | punctate EGFP-LC3 emission patterns | 60 | extensive cell death | dose-responsive accumulation | reduced | significant cytotoxicity | marked accumulation of lysosomes | most resistant |
